For 17 molecules, EC50 and IC50 results are on record in patent US20120184542A1, “PYRIDO PYRIMIDINES” (priority 2011, published 2012).

Where a name gives a salt, the structure may show the parent alone. Read-outs that look alike come from different tables or passages of the source.

In assay [1] the test system is SW620 human colon cancer cells. Briefly: SW620 Cell Viability Assay. The assay is classed as cell-based. To be noted: CellTiter-Glo, 4 days incubation, read-out: Cellular EC50 (μM) SW620. An outline of the steps: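 SW620 human colon cancer cells, some attached 24 h then serum-starved 48 h before dosing; compounds prepared in serum-supplemented medium. Cells incubated with compound 4 days at 37 °C, 5% CO2, and viability measured by CellTiter-Glo luminescence.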
Background: ATP-based viability assays read luminescence as a measure of living cells.

For the next assay, the target named is T1, Human DYRK1A (Homo sapiens, UniProt Q13627).
T1 construct: purchased Invitrogen PV3997
Briefly: DYRK1A Kinase TR-FRET (IMAP-Tb) Assay. The assay is classed as biochemical. To be noted: TR-FRET (IMAP-Tb); ATP 70 μM; 37° C. 60 minutes; read-out: Enzyme IC50 (μM) DYRK1A. An outline of the steps:
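Recombinant human DYRK1A phosphorylated fluorescent substrate peptide (1.0 μM) with ATP in 10 mM HEPES pH 7.0, 50 mM NaCl, 5 mM MgCl2, 1 mM DTT, 1 mM NaVO4, 0.02% BSA for 60 min at 37 °C. Phosphopeptide detected by IMAP terbium TR-FRET; IC50 reported.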

The target in the next assay is T2, Human DYRK1B (Homo sapiens, UniProt Q9Y463).
T2 construct: purchased Invitrogen PR8350B (former PV4649)
T2 sequence (Q9Y463 whole entry): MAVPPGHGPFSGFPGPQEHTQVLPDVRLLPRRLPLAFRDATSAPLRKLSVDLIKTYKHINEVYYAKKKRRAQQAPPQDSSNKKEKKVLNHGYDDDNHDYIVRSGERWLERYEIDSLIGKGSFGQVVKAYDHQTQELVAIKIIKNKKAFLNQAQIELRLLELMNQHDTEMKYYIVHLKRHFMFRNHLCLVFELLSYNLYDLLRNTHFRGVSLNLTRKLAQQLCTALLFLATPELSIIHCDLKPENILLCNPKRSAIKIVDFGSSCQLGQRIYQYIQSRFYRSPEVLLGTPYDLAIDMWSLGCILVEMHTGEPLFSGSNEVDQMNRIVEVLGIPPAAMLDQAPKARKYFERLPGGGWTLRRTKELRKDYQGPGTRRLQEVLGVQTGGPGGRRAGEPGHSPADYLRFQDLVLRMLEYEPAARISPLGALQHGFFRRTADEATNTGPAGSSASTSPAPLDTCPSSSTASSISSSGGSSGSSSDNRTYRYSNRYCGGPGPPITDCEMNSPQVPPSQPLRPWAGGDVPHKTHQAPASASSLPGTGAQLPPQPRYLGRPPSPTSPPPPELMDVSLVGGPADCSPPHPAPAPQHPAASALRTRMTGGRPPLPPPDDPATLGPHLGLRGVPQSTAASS
Put plainly: DYRK1B Kinase TR-FRET (IMAP-Tb) Assay. To be noted: TR-FRET (IMAP-Tb); ATP 70 μM; 37° C. 60 minutes; read-out: Enzyme IC50 (μM) DYRK1B. The assay is classed as biochemical. For orientation: Time-resolved FRET reads energy transfer from a long-lived donor to a nearby acceptor.

The EC50 is the concentration at which the effect is half-maximal. The IC50 is the concentration that inhibits the measured activity by half. Take `CC1(C)OCC(CNc2ncc3cc(C(=O)Nc4cc(C(=O)NCc5cccc(Cl)c5)ccc4Cl)c(=O)[nH]c3n2)O1` (stereo not drawn) [Example 124, N-(2-Chloro-5-(3-chlorobenzylcarbamoyl)phenyl)-2-((2,2-dimethyl-1,3-dioxolan-4-yl)methylamino)-7-oxo-7,8-dihydropyrido[2,3-d]pyrimidine-6-carboxamide]: in assay [1] (Homo sapiens, SW-620, 96 h), the half-maximal effective concentration (EC50) was more than 10 µM. Moreover, the results for the IC50 at Human DYRK1A and at Human DYRK1B were 0.113 µM and 0.107 µM, respectively.

Turning to `CN1CCN(CCNc2ncc3cc(C(=O)Nc4cc(C(=O)NC(CN)c5ccccc5)ccc4Cl)c(=O)[nH]c3n2)CC1` (stereo not drawn) [Example 139, N-(5-(2-Amino-1-phenylethylcarbamoyl)-2-chlorophenyl)-2-(2-(4-methylpiperazin-1-yl)ethylamino)-7-oxo-7,8-dihydropyrido[2,3-d]pyrimidine-6-carboxamide hydrochloride], in assay [1] (Homo sapiens, SW-620, 96 h), the EC50 was 0.396 µM. For the same molecule, the IC50 on Human DYRK1A amounted to 0.006 µM; on Human DYRK1B, 0.019 µM.

`COc1ncc2cc(C(=O)Nc3cc(C(=O)NCCC(N)=O)ccc3Cl)c(=O)[nH]c2n1` [Example 167, N-(5-(3-Amino-3-oxopropylcarbamoyl)-2-chlorophenyl)-2-methoxy-7-oxo-7,8-dihydropyrido[2,3-d]pyrimidine-6-carboxamide]: in assay [1] (Homo sapiens, SW-620, 96 h), the EC50 was more than 10 µM. In addition, the IC50 at Human DYRK1A stood at 0.338 µM; on Human DYRK1B, 0.769 µM.

In the case of `CN1CCN(CCOc2ncc3cc(C(=O)Nc4cc(C(=O)NCc5cccc(Cl)c5)ccc4Cl)c(=O)[nH]c3n2)CC1` [Example 87, 2-[2-(4-Methyl-piperazin-1-yl)-ethoxy]-7-oxo-7,8-dihydro-pyrido[2,3-d]pyrimidine-6-carboxylic acid [2-chloro-5-(3-chloro-benzylcarbamoyl)-phenyl]amide], in assay [1] (Homo sapiens, SW-620, 96 h), the EC50 is 0.186 µM. For the same molecule, the IC50 was 0.061 µM on Human DYRK1A and 0.0859 µM on Human DYRK1B.

As for `COC(=O)c1ccc(Cl)c(NC(=O)c2cc3cnc(NCC(O)CO)nc3[nH]c2=O)c1` (stereo not drawn) [Example 38, 4-Chloro-3-{[2-(2,3-dihydroxy-propylamino)-7-oxo-7,8-dihydro-pyrido[2,3-d]pyrimidine-6-carbonyl]amino}-benzoic acid methyl ester], the concentration for a half-maximal effect (EC50) in assay [1] (Homo sapiens, SW-620, 96 h) was more than 100 µM. For the same molecule, the IC50 amounted to 0.0385 µM on Human DYRK1A and 0.08 µM at Human DYRK1B.

Take `O=C(NC(CCO)c1ccccc1)c1ccc(Cl)c(NC(=O)c2cc3cnc(N4C[C@H]5CC[C@@H](C4)O5)nc3[nH]c2=O)c1` (stereo partly drawn) [Example 182, 2-(1R,5S)-8-Oxa-3-aza-bicyclo [3.2.1]oct-3-yl-7-oxo-7,8-dihydro-pyrido[2,3-d]pyrimidine-6-carboxylic acid [2-chloro-5-(3-hydroxy-1-phenyl-propylcarbamoyl)-phenyl]amide]: the EC50 in assay [1] (Homo sapiens, SW-620, 96 h) was found to be 1.12 µM. Besides, the values for the IC50 on Human DYRK1A and on Human DYRK1B were 0.083 µM and 0.081 µM, respectively.

With `CN1CCN(CCCNc2ncc3cc(C(=O)Nc4cc(C(=O)NC(CN)c5ccccc5)ccc4Cl)c(=O)[nH]c3n2)CC1` (stereo not drawn) [Example 122, N-(5-(2-Amino-1-phenylethylcarbamoyl)-2-chlorophenyl)-2-(3-(4-methylpiperazin-1-yl)propylamino)-7-oxo-7,8-dihydropyrido[2,3-d]pyrimidine-6-carboxamide], the EC50 in assay [1] (Homo sapiens, SW-620, 96 h) turned out to be 0.359 µM. The IC50 on Human DYRK1A worked out at 0.012 µM; on Human DYRK1B, 0.009 µM.

Regarding `O=C(NCc1cccc(Cl)c1)c1ccc(Cl)c(NC(=O)c2cc3cnc(NCCO)nc3[nH]c2=O)c1` [Example 103, N-(2-chloro-5-(3-chlorobenzylcarbamoyl)phenyl)-2-(2-hydroxyethylamino)-7-oxo-7,8-dihydropyrido[2,3-d]pyrimidine-6-carboxamide], in assay [1] (Homo sapiens, SW-620, 96 h), the EC50 is more than 10 µM. Also, the figures for the IC50 on Human DYRK1A and on Human DYRK1B were 0.00974 µM and 0.0291 µM, respectively.

For `O=C(NCc1cccc(Cl)c1)c1ccc(Cl)c(NC(=O)c2cc3cnc(NC4CCNCC4)nc3[nH]c2=O)c1` [Example 125, N-(2-Chloro-5-(3-chlorobenzylcarbamoyl)phenyl)-7-oxo-2-(piperidin-4-ylamino)-7,8-dihydropyrido[2,3-d]pyrimidine-6-carboxamide hydrochloride], the EC50 in assay [1] (Homo sapiens, SW-620, 96 h) was determined as 1.5 µM. The IC50 was found to be 0.0303 µM at Human DYRK1A and 0.206 µM on Human DYRK1B.

Take `CN1CCN(c2ncc3cc(C(=O)Nc4cc(C(=O)NCc5cccc(Cl)c5)ccc4Cl)c(=O)[nH]c3n2)CC1` [Example 75, 2-(4-Methyl-piperazin-1-yl)-7-oxo-7,8-dihydro-pyrido[2,3-d]pyrimidine-6-carboxylic acid [2-chloro-5-(3-chloro-benzylcarbamoyl)-phenyl]-amide]: the EC50 in assay [1] (Homo sapiens, SW-620, 96 h) is 0.563 µM. For the same molecule, the results for the IC50 on Human DYRK1A and on Human DYRK1B were 0.0211 µM and 0.103 µM, respectively.

In the case of `COc1ncc2cc(C(=O)Nc3cc(C(=O)NCC[C@@H](N)c4ccccc4)ccc3Cl)c(=O)[nH]c2n1` [Example 184, (R)—N-(5-(3-Amino-3-phenylpropylcarbamoyl)-2-chlorophenyl)-2-methoxy-7-oxo-7,8-dihydropyrido[2,3-d]pyrimidine-6-carboxamide], in assay [1] (Homo sapiens, SW-620, 96 h), the EC50 worked out at 5.09 µM. Further, the IC50 stood at 0.331 µM on Human DYRK1A and 0.691 µM at Human DYRK1B.

For the molecule `O=C(NCc1cccc(Cl)c1)c1ccc(Cl)c(NC(=O)c2cc3cnc(NCCCN4CCOCC4)nc3[nH]c2=O)c1` [Example 90, 2-(3-Morpholin-4-yl-propylamino)-7-oxo-7,8-dihydro-pyrido[2,3-d]pyrimidine-6-carboxylic acid [2-chloro-5-(3-chloro-benzylcarbamoyl)-phenyl]amide], the half-maximal effective concentration (EC50) in assay [1] (Homo sapiens, SW-620, 96 h) came out at 0.312 µM. For the same molecule, the IC50 on Human DYRK1A worked out at 0.0113 µM; at Human DYRK1B, 0.0523 µM.

`CN1CCN(CCCNc2ncc3cc(C(=O)Nc4cc(C(=O)NC(CN)c5ccccc5)ccc4Cl)c(=O)[nH]c3n2)CC1` (stereo not drawn) [Example 123, N-(5-(2-Amino-1-phenylethylcarbamoyl)-2-chlorophenyl)-2-(3-(4-methylpiperazin-1-yl)propylamino)-7-oxo-7,8-dihydropyrido[2,3-d]pyrimidine-6-carboxamide hydrochloride]: the EC50 in assay [1] (hydrochloride) was 0.319 µM. The IC50 at Human DYRK1A amounted to 0.0067 µM; on Human DYRK1B, 0.0082 µM.

Regarding `COc1ncc2cc(C(=O)Nc3cc(C(=O)NCCc4ccccc4)ccc3Cl)c(=O)[nH]c2n1` [Example 70, 2-Methoxy-7-oxo-7,8-dihydro-pyrido[2,3-d]pyrimidine-6-carboxylic acid (2-chloro-5-phenethylcarbamoyl-phenyl)-amide], the EC50 in assay [1] (Homo sapiens, SW-620, 96 h) is 2.3 µM. For the same molecule, the IC50 at Human DYRK1A was 0.352 µM; on Human DYRK1B it was 0.204 µM.

`O=C(NCc1cccc(F)c1)c1ccc(Cl)c(NC(=O)c2cc3cnc(N4CCOCC4)nc3[nH]c2=O)c1` [Example 161, 2-Morpholin-4-yl-7-oxo-7,8-dihydro-pyrido[2,3-d]pyrimidine-6-carboxylic acid [2-chloro-5-(3-fluoro-benzylcarbamoyl)-phenyl]-amide]: the EC50 in assay [1] (Homo sapiens, SW-620, 96 h) is more than 10 µM. Moreover, the values for the IC50 at Human DYRK1A and on Human DYRK1B were 0.0462 µM and 0.0472 µM, respectively.

On to `CN1CCN(CCNc2ncc3cc(C(=O)Nc4cc(C(=O)NCc5cccc(Cl)c5)ccc4Cl)c(=O)[nH]c3n2)CC1` [Example 100, N-(2-chloro-5-(3-chlorobenzylcarbamoyl)phenyl)-2-(2-(4-methylpiperazin-1-yl)ethylamino)-7-oxo-7,8-dihydropyrido[2,3-d]pyrimidine-6-carboxamide hydrochloride], for which the concentration for a half-maximal effect (EC50) in assay [1] (hydrochloride) was determined as 0.068 µM. Further, the IC50 was 0.0381 µM on Human DYRK1A and 0.142 µM at Human DYRK1B.

`O=C(NCc1cccc(F)c1)c1cc(NC(=O)c2cc3cnc(N4CCOCC4)nc3[nH]c2=O)c(Cl)cc1F` [Example 162, 2-Morpholin-4-yl-7-oxo-7,8-dihydro-pyrido[2,3-d]pyrimidine-6-carboxylic acid [2-chloro-4-fluoro-5-(3-fluoro-benzylcarbamoyl)-phenyl]-amide]: the EC50 in assay [1] (Homo sapiens, SW-620, 96 h) is more than 10 µM. Besides, the IC50 at Human DYRK1A stood at 0.0432 µM; on Human DYRK1B, 0.135 µM.
